Source: patent US7994399B2, “Methods for the production of stably transformed, fertile Zea mays plants” (BASF Plant Science GmbH, priority 2005, dated 2011)
Marks after values point to notes of the source that are not given here.

How the values were obtained:
[1] = tested on: Zea mays immature embryos; assay: Agrobacterium-mediated transformation of maize immature embryos, additives in the co-cultivation medium; type: cell-based; conditions: for Average TE (%) (transformation efficiency): L-cysteine added (+) to co-cultivation medium, split-cob design, drop inoculation
Method: Adjust pH media to 5.8 with 1 M NaOH. Weigh 4 g Sigma Purified Agar per bottle (8 g/L) and dispense 500 mL media per bottle, autoclave. When cooled add AgNO3 (stock at 15 mM) to a final concentration of 15 μM and L-cysteine (stock at 150 mg/ml) to a final concentration 300 mg/l. Pour into 100×20 mm Petri plates. Medium containing acetosyringone should be used freshly without long term storage.
Excised immature embryos are directly put on the co-cultivation medium (medium A-3) with the flat side down (scutellum upward). Each plate (20×100 mm plate) can hold up to 100 immature embryos. Put 5 μl of diluted Agrobacterium cell suspension to each immature embryo with a repeat pipettor. Remove excess moisture covering immature embryos by leaving the plate cover open in the hood for about 15 min. Seal the plate with 3M micropore tape and wrap with aluminum foil. Incubate the plate in the dark at 22° C. for 2 to 3 days. Take 3-5 immature embryos for GUS staining if a GUS construct is used to assess transient GUS expression.

[2] = tested on: XI12 mutant maize lines; conditions: cited from earlier work
[3] = tested on: Maize XA17 mutants; conditions: cited from earlier work
[4] = addition to co-cultivation medium, BPS553×(HiIIA×A188) genotypes

| Structure (SMILES) | Effect on transformation efficiency [1, 4] | Average TE (%) (transformation efficiency) ([1]; hybrid BPS553x(HillAxA188), 20 experiments) | Average TE (%) (transformation efficiency) ([1]; inbred BPS553, 27 experiments) | Effect on transformation efficiency ([1]; presence in the co-cultivation medium) | Resistance or sensitivity of the plants to the herbicide [2] | Resistance or tolerance of the plants to the herbicide [3] |
| --- | --- | --- | --- | --- | --- | --- |
| N[C@@H](CS)C(=O)O [L-Cysteine] | further enhances transformation efficiency | 32.2* % | 9.6* % | significantly increasing transformation efficiency |  |  |
| CC(C)C1(C)N=C(c2nc3ccccc3cc2C(=O)O)NC1=O (stereo not drawn) [imazaquin] |  |  |  |  | sensitive | highly resistant |
| CCc1cnc(C2=NC(C)(C(C)C)C(=O)N2)c(C(=O)O)c1 (stereo not drawn) [imazethapyr] |  |  |  |  | highly resistant | highly resistant |
| O=[N+]([O-])[O-].[Ag+] [silver nitrate] | further enhances transformation efficiency |  |  |  |  |  |
